Experimental data reported in article PMC8955485, “Journey on VX-809-Based Hybrid Derivatives towards Drug-like F508del-CFTR Correctors: From Molecular Modeling to Chemical Synthesis and Biological Assays” (Pharmaceuticals, 2022).

What was measured:
[1] = biological target: T1, F508del-CFTR (Homo sapiens, UniProt P13569, DEL508-508); test: HS-YFP functional assay of corrector combinations with VX-445; assay type: cell-based; parameters: expressed in transfected cells; settings: CFBE41o- cells, 24 h, VX-445 3 µM; for effect of combination with VX-445 on F508del-CFTR activity: forskolin 20 µM plus VX-770 1 µM
T1 sequence (P13569 with tags, fused parts or gaps DEL508-508): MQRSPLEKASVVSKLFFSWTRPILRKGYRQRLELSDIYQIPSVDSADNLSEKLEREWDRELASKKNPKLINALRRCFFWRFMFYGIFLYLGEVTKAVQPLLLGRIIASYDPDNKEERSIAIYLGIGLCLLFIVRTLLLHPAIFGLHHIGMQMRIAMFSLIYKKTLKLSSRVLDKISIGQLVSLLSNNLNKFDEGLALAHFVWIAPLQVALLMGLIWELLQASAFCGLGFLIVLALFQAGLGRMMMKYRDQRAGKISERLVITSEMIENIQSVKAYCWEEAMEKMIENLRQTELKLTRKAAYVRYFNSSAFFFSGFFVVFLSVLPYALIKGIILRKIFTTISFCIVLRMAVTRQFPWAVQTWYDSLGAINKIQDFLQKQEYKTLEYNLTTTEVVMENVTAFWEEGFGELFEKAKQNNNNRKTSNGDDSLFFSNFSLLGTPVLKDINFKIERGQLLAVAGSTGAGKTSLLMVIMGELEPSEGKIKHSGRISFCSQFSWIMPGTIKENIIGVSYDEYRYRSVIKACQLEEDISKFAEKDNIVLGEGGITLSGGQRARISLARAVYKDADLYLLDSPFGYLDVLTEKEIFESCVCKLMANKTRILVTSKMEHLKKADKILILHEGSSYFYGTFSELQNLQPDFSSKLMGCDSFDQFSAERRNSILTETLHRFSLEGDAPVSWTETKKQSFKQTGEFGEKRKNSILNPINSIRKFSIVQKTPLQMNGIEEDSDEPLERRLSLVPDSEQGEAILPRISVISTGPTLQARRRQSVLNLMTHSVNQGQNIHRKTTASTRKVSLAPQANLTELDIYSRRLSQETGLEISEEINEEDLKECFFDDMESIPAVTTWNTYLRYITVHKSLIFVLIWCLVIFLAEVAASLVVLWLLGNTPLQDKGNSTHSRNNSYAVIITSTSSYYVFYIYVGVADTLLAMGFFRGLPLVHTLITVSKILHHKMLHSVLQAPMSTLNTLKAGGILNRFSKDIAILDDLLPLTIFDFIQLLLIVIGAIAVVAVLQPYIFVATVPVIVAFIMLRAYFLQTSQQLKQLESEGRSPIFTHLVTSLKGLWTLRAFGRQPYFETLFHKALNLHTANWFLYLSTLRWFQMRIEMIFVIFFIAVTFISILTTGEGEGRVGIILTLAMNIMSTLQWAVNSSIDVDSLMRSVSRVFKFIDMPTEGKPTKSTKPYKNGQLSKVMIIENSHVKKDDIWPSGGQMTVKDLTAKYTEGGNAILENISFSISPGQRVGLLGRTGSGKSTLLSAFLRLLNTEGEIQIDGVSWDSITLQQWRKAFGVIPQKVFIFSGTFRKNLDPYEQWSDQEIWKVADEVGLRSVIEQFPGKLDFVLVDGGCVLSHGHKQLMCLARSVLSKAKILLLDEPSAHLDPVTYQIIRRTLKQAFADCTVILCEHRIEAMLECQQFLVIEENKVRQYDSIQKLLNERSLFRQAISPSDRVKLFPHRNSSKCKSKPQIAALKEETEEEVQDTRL
Procedure: Now, to further characterize the activity of these compounds, we tested the novel derivates 9b, 9g, and 9j, along with VX-809 as a positive control, in combination with VX-445 (3 µM), in CFBE41o-cells stably expressing F508del-CFTR by using the YFP functional assay (Figure 7). To this aim, cells were treated for 24 h with test compounds at different concentrations, in combination with VX-445 (3 µM), and then assayed after maximal stimulation of F508del-CFTR in the presence of forskolin (20 µM) plus VX-770 (1 µM).
CFBE41o-cells co-expressing mutants CFTR and HS-YFP were plated (50,000 cells/well) on clear-bottom 96-well black microplates (Corning Life Sciences, Acton, MA) and grown at 37 °C in 5% CO2 for 24 h. For the corrector assay, CFBE41o-cells were treated for further 24 h with compounds as indicated. The following day, prior to the assay, the culture medium was removed and cells were stimulated for 30 min at 37 °C with 60 µL PBS (containing 137 mM NaCl, 2.7 mM KCl, 8.1 mM Na2HPO4, 1.5 mM KH2PO4, 1mM CaCl2, and 0.5 mM MgCl2) plus forskolin (20 µM) and VX-770 (1 µM).
Microplates containing CFBE41o-cells were then transferred to a plate reader (FluoStar Galaxy; BMG Labtech, Offenburg, Germany) equipped with excitation (HQ500/20X: 500 ± 10 nm) and emission (HQ535/30M: 535 ± 15 nm) filters for YFP (Chroma Technology, Brattleboro, VT, USA). During the assay fluorescence was measured continuously for 14 s with 2 s before and 12 s after injection of an iodide containing solution (165 µL of a modified PBS containing I^- instead of Cl^-; final I^- concentration in the well: 100 mM).
Fluorescence data were normalized for the initial value and fluorescence quenching rate following I^- influx, were determined by fitting the final 10 s of data for each well with an exponential function to extrapolate initial slope (dF/dt).
Figure 7 Functional analysis of corrector combinations. F508del-CFTR activity was determined in CFBE41o-cells with stable expression of the HS-YFP. Cells were treated for 24 h with VX-445 (3 µM) alone or in combination with 9b, or 9g, or 9j, or VX-809 at different concentrations (from 102 nM to 10 µM). The YFP-based assay was performed after stimulation of CFTR activity with forskolin (20 µM) plus VX-770 (1 µM).

[2] = biological target: T1, F508del-CFTR; test: Western blot analysis of CFTR expression pattern (C band/B band ratio); assay type: cell-based; parameters: expressed in transfected cells; settings: F508del-CFTR/HS-YFP CFBE41o- cells; 24 h; 50 nM and 1 µM; versus DMSO
Excerpt: We then biochemically estimated the rescue of the trafficking defect by analyzing the electrophoretic mobility of mutant CFTR protein. In Western blots, CFTR protein can be detected as two bands B and C, of approximately 150 and 170 kDa, respectively. Band B corresponds to immature, partially glycosylated CFTR, while band C corresponds to the mature fully glycosylated CFTR. In cells expressing wild-type CFTR protein, the prevalent form is band C, while the main form in cells expressing F508del-CFTR is band B, in agreement with the severe trafficking defect caused by this mutation (Figure 8). To estimate the effect of our molecules on CFTR expression pattern, we treated F508del-CFTR/HS-YFP expressing CFBE41o-cells for 24 h with test compounds 9b, 9g, and 9j (50 nM and 1 µM) VX-809 as a positive control or DMSO as a vehicle alone.
The next day, cells were lysed and the obtained lysates were subjected to SDS-PAGE followed by Western blotting (Figure 8A). Western blot images were analyzed with ImageJ software. CFTR bands, analyzed as ROI, were quantified in each lane after normalization for GAPDH as a loading control. […]
Supernatant protein concentration was calculated using the BCA assay (Euroclone, Milan, Italy). For each sample, 10 μg of total proteins was resolved in 4–20% gradient Criterion TGX precast gels, transferred to nitrocellulose membranes (using a Trans-Blot Turbo system; Bio-Rad, Hercules, CA, USA), and analyzed by Western blotting. Proteins were detected using the antibodies described above and subsequently visualized by chemiluminescence using the SuperSignal West Femto Substrate (Thermo Fisher Scientific, Waltham, MA, USA). […] Images were analyzed with ImageJ software (NIH). Bands were analyzed as ROI, normalized against the GAPDH loading control.
Figure 8 Biochemical analysis of the F508del-CFTR expression pattern: (A). […] Quantification of the C band/B band ratio in experiments as in (A). […]

Row | effect of combination with VX-445 on F508del-CFTR activity [1] | C band/B band ratio [2] | SMILES | combination with VX-445 compared with VX-809 + VX-445: maximal rescue and activity at low concentration [1]
1 | clear additive effect | significant enhancement | COc1ccc(-c2nc(NC(=O)C3(c4ccc5c(c4)OCO5)CC3)sc2C(=O)c2ccc(N3CCCC3)cc2)cc1 [Compound 9g] | as effective as the combination with the positive control VX-809
2 | clear additive effect | significant enhancement | COc1cccc(-c2nc(NC(=O)C3(c4ccc5c(c4)OCO5)CC3)sc2C(=O)c2ccc(OC(F)(F)F)cc2)c1 [Compound 9j] | as effective as the combination with the positive control VX-809
